Several values for one entry are separate records, joined by “and”; a condition that tells them apart may be missing. Identical values can stand only once. Like-named read-outs stand apart in the source and are kept apart here.
Legend:
fresh human PBMCs = assay: PBMC assay, host cell cytotoxicity; assay type: cell-based; conditions: for CC50: PBMCs, read-out: TC50 (the source's name)
[1] = system: 92HT599 (CXCR4-tropic HIV-1 Subtype B virus); assay: PBMC assay, HIV-1 92HT599; assay type: cell-based; conditions: Virus 92HT599, PBMCs
Experimental: (§1) Acute infection of HIV-1 isolates (CXCR4-tropic HIV-1 Subtype B and CCR5-tropic HIV-1 Subtype) using fresh human PBMCs from multiple donors (PMA and IL-2 stimulated). Antiviral activity determined as a reduction in reverse transcriptase after 7-day incubation.
(§2) TI=TC/IC; also referred to as Therapeutic Index values (TI) or Antiviral Index (AI)
(§3) Antiviral activity was determined as a reduction in reverse transcriptase after 7-day incubation. AZT, a nucleoside analog reverse transcriptase inhibitor, was used as the positive control for the assay.
(§4) 92HT599 is a CXCR4-tropic HIV-1 Subtype B virus. 91US005 is CCR5-tropic HIV-1 Subtype B virus.

[2] = system: eight CCR5-tropic HIV-1 clinical isolates; assay: CCR5-tropic HIV-1 clinical isolates in fresh human PBMCs; assay type: cell-based; conditions: FIG. 5, fresh human PBMCs
[3] = system: 91US005 (CCR5-tropic HIV-1 Subtype B virus); assay: PBMC assay, HIV-1 91US005; assay type: cell-based; conditions: Virus 91US005, PBMCs
Experimental: as §1, §2, §3, §4

HIV-1 = assay: U1 latent infection assay, antiviral (reverse transcriptase); assay type: cell-based; conditions: U1 latent/induced
Experimental: Histocytic leukemia cell line U937, latently infected with HIV-1, are treated with TNFα to induce virus expression in the presence of test compound. Antiviral activity is determined as a reduction in reverse transcriptase after 72 hr incubation.
as §2
The histocytic leukemia cell line U937, latently infected with HIV-1, was treated with TNFα to induce virus expression in the presence of test compound. Antiviral activity was determined as a reduction in reverse transcriptase after 72 hr incubation. Temacrazine, an inhibitor of HIV transcription initiation, was used as the positive control for the assay.

[4] = system: U937, latently infected with HIV-1 (U1 cells); assay: U1 latent infection assay, host cell cytotoxicity; assay type: cell-based; conditions: U1 latent/induced, 72 hr; read-out: TC50 (the source's name)
[5] = Pharmacokinetics in mouse (IV bolus or oral dose); assay type: in vivo; conditions: mice; for Cmax: read-out: Cmax-obs; for half-life: read-out: t1/2 (converted)
Experimental: The pharmacokinetics properties of drugs were investigated in three species, following an intravenous (IV) bolus or oral (PO) dose of Compound K at the dosages indicated in the chart. Blood samples were collected at predetermined times and the plasma separated. Plasma was separated from the blood samples collected at 5, 15 and 30 minutes and 1, 2, 4, 8 and 24 hours post-dose.
Drug levels were quantified by the LC/MS/MS method described below. Noncompartmental pharmacokinetic analysis was applied for intravenous administration. […] The terminal t1/2 and C0 were calculated using the last three and the first three data points, respectively
Bioanalysis was performed using a Quattro Micro LC/MS/MS instrument in the MRM detection mode, with an internal standard (1S). Briefly, 15 μL plasma samples were prepared for analysis using protein precipitation with 120 μL of acetonitrile. The supernatants were transferred into a 96 well plate and subjected to LC-MS/MS analysis using a Phenomenex Polar-RP HPLC column. The mobile phases were 10 mM NH4HCO3 in water (Solution-A) and 10 mM NH4HCO3 in methanol (Solution-B). The column was initially equilibrated with 25% Solution-B and followed with 100% Solution B over 5 minutes. […] Quantitation of the analytes was performed in the batch mode with two bracketing calibration curves according to the bioanalytical sample list.

[6] = PBMC assay, host cell cytotoxicity; assay type: cell-based, human; conditions: human; PBMCs; read-out: TC50
[7] = U1 latent infection assay, host cell cytotoxicity; assay type: cell-based; conditions: human, U1 latent/induced, read-out: TC50
[8] = system: formalin-induced persistent pain; assay: Formalin-induced persistent pain model (flinching); assay type: in vivo, ICR mice; conditions: 3 mg/kg, subcutaneously injected, positive control
Experimental: See Hunskaar, et al., “The formalin test in mice: Dissociation between inflammatory and non-inflammatory pain,” Pain, vol. […] 89, 53-63 (2000). These tests were conducted with ICR mice, in accordance with guidelines established by the International Association for the Study of Pain. Compounds of the invention were used as solutions of about 3-20 mg/mL in aqueous solution at about pH 8. […] The test animals were monitored for at least 40 minutes, during which time the number of flinches occurring during each 5-minute period were observed and recorded. A cohort of 12 animals were used for each dose level of each compound tested.
The compounds were administered orally in a single dose, of 30, 100, and 200 mg/kg, one hour prior to injection of formalin Pain response was measured by flinching frequency.

[9] = system: CFA-induced thermal hyperalgesia; assay: CFA-induced thermal hyperalgesia model (Hargreaves); assay type: in vivo, ICR mice; conditions: single intraperitoneal dose 50 mg/kg; 1, 2, and 4 hours after administration
Experimental: The observations of pain responses were done blindly.
[…] On day 4, test subjects received a single injection of CFA (20 microliters) subcutaneously in the plantar surface of the left rear paw. CFA was injected subcutaneously into the plantar surface of the left hind paw of each test subject, under isoflurane anesthesia. […] On day 5, thermal responses were measured prior to treatment with the compound and again 1, 2, and 4 hours after treatment with […]. Withdrawal latencies were measured in response to thermal stimulus by the Hargreaves method. Naproxen was used as a positive control.

[10] = TNFα, reverse transcriptase after 72 hr
[11] = Human immunodeficiency virus 1, PBMC, 168 h, 7-day incubation
[12] = Human immunodeficiency virus 1, PBMC
[13] = Human immunodeficiency virus 1, 72 h, 72 hr, positive control

Cc1cn([C@H]2C[C@H](N=[N+]=[N-])[C@@H](CO)O2)c(=O)[nH]c1=O [AZT, reference compound]
CC50 (fresh human PBMCs; positive control): > 1 µM | TI (TC50/IC50) [1]: >665 | IC50 ([1]; positive control): 0.0015 µM | IC90 ([1]; positive control): 0.00758 µM | HIV-1 93TH073 Clade E replication [2]: inhibition of HIV-1 93TH073 Clade E replication | TI (TC50/IC50) [3]: >611 | IC50 ([3]; positive control): 0.00164 µM | IC90 ([3]; positive control): 0.00686 µM

C#Cc1cccc(Nc2nc3cc(C(=O)[O-])ccc3c3cncnc23)c1.[Na+] [Compound 1 Na]
TI (TC50/IC50) (HIV-1): 87.3 | IC90 (HIV-1; 72 hr): 9.08 µM | IC50 (HIV-1; [10]): 0.2 µM | CC50 (fresh human PBMCs): 3.53 µM | IC90 [1]: 2.77 µM | TI (TC50/IC50) [1]: 3.07 | IC50 ([1]; 7-day incubation): 1.15 µM | CC50 [4]: 17.1 µM | IC90 [3]: 1.41 µM | TI (TC50/IC50) [3]: 35.8 | IC50 ([3]; 7-day incubation): 0.1 µM

C#Cc1cccc(Nc2nc3cc(C(=O)O)ccc3c3cncnc23)c1 [Compound 1, 5-(3-ethynylphenylamino)pyrimido[4,5-c]quinoline-8-carboxylic acid]
CLs ([5]; IV 5.4 mg/kg): 5.28 mL/min/kg | Cp0-exp ([5]; IV 5.4 mg/kg): 29442.03 ng/mL | Kel ([5]; IV 5.4 mg/kg): 0.0678 h⁻¹ | F(0-24 h) ([5]; PO 10.8 mg/kg): 7.2% | F(0-Inf) ([5]; PO 10.8 mg/kg): 11.0% | Kel ([5]; PO 10.8 mg/kg): 0.0323 h⁻¹ | AUC(0-t) ([5]; mouse, plasma, iv, 5.4 mg/kg, AUC(0-8 h), IV 5.4 mg/kg): 11200 ng·h/mL | AUC(0-t) ([5]; mouse, plasma, iv, 5.4 mg/kg, IV 5.4 mg/kg, read-out: AUC(0-24 h)): 15300 ng·h/mL | AUC(0-t) ([5]; mouse, plasma, po, 10.8 mg/kg, AUC(0-8 h), PO 10.8 mg/kg): 1050 ng·h/mL | AUC(0-t) ([5]; mouse, plasma, po, 10.8 mg/kg, PO 10.8 mg/kg, read-out: AUC(0-24 h)): 2210 ng·h/mL | AUC(0-inf) ([5]; mouse, plasma, IV 5.4 mg/kg): 17000 ng·h/mL | Cmax ([5]; mouse, plasma, IV 5.4 mg/kg): 21800 ng/mL | Vd ([5]; mouse, plasma, IV 5.4 mg/kg, read-out: Vd): 4.67 L/kg | half-life ([5]; mouse, plasma, IV 5.4 mg/kg): 10.2 h | AUC(0-inf) ([5]; mouse, plasma, PO 10.8 mg/kg): 3760 ng·h/mL | Tmax ([5]; mouse, plasma, PO 10.8 mg/kg): 0.25 h | Cmax ([5]; mouse, plasma, PO 10.8 mg/kg): 800 ng/mL | half-life ([5]; mouse, plasma, PO 10.8 mg/kg): 21.5 h

O=C([O-])c1ccc2c(c1)nc(Nc1cccc(C(F)(F)F)c1)c1nc(NC3CC3)ncc12.[Na+] [Compound 2 Na]
TI (TC50/IC50) (HIV-1): >30.9 and >30.7 | IC90 (HIV-1; 72 hr): > 100 µM | IC50 (HIV-1; [10]): 3.24 µM and 3.26 µM | CC50 (fresh human PBMCs): 12 µM | IC90 [1]: 20.6 µM | TI (TC50/IC50) [1]: 2.65 | IC50 ([1]; 7-day incubation): 4.52 µM | CC50 [4]: > 100 µM | IC90 [3]: 3.77 µM | TI (TC50/IC50) [3]: 59.6 | IC50 ([3]; 7-day incubation): 0.2 µM

O=C(O)c1ccc2c(c1)nc(Nc1cccc(C(F)(F)F)c1)c1nc(NC3CC3)ncc12 [Compound 2]
cytotoxicity in PBMC's (fresh human PBMCs): minimal cytotoxicity

O=C(O)c1ccc2c(c1)nc(Nc1cccc(Cl)c1)c1ccncc12 [Compound K Na]
IC90 (HIV-1; Human immunodeficiency virus 1, 72 h, 72 hr): 18 µM | IC50 (HIV-1; Human immunodeficiency virus 1, 72 h, TNFα, reverse transcriptase after 72 hr): 0.7 µM | TI (TC50/IC50) (HIV-1): 15.2 | CC50 at 7 days [6]: 7.61 µM | IC50 [1, 11]: 3.49 µM | IC90 [1, 12]: 8.25 µM | TI (TC50/IC50) [1]: 2.18 | CC50 at 72 h [7]: 10.6 µM | IC50 [3, 11]: 1.07 µM | IC90 [3, 12]: 3.05 µM | TI (TC50/IC50) [3]: 7.13

O=c1c2ccccc2n2nnc3ccc(NCCCN4CCN(CCCNc5ccc6nnn7c8ccccc8c(=O)c5c67)CC4)c1c32 [Temacrazine, reference compound]
IC50 (HIV-1; [13]): 0.00356 µM | IC90 (HIV-1; [13]): 0.0179 µM | TI (TC50/IC50) (HIV-1): >28.1 and >27.4 | IC50 (HIV-1; 72 hr, positive control): 0.00364 µM | IC90 (HIV-1; 72 hr, positive control): 0.0169 µM | CC50 at 72 h ([7]; positive control): > 0.1 µM

CN1CC[C@]23c4c5ccc(O)c4O[C@H]2[C@@H](O)C=C[C@H]3[C@H]1C5 [morphine, reference compound]
formalin-induced flinching, first phase [8]: reduced formalin-induced flinching | formalin-induced flinching, second phase [8]: reduced formalin-induced flinching

COc1ccc2cc([C@H](C)C(=O)O)ccc2c1 [naproxen, reference compound]
effect on CFA-induced thermal hyperalgesia [9]: significantly reversed the CFA-induced thermal hyperalgesia

— patent publication US20100267753A1, “METHODS OF TREATING DISORDERS ASSOCIATED WITH PROTEIN KINASE CK2 ACTIVITY” (priority 2009, published 2010)
